One data set has as its system murine macrophages. As to the kind of experiment: Nitrite (nitric oxide) production by LPS-stimulated murine macrophages given arginine samples. The class given is cell-based. The conditions noted are these: arginine 120 mcg/ml, LPS 1 ng/ml, 24 hours; for Mean O.D. ± S.D. (optical density at 540 nm, a measure of nitrite concentration): 12 wells. The procedure:
Paracelsian in Ithaca, N.Y., an outside independent lab, performed the following bioassays. Each arginine sample was added to 12 wells of murine macrophages to achieve a concentration of 120 mcg/ml. This is the estimated serum concentration for a 70 Kg person after ingesting a 6-gram serving of arginine, a level observed in numerous clinical studies to be associated with a wide range of physiologic benefits. LPS at 1 ng/ml was added to each well and the cells were incubated for 24 hours. The nitrite concentration in each well's supernatant was determined 24 hours after initiation of treatment as a relative measure of nitric oxide production.
The results are listed in order of relative nitrite production, from greatest to least. The first column is the Arg #, the second the mean plus or minus the standard deviation of the optical density measurement at 540 nm, a measure of nitrite concentration, and the third column the relative production of nitrites expressed in micrograms per ml as determined from optical density.

Data set [1] can be described thus: Case report: lupus patient on the laser treated methylation formula. The class given is in vivo, human. To be noted: before entry, only treatment. From the text: The exemplary patient had suffered with relapsing lupus for several years. At the time of entry into the methylation formula studies of EXAMPLE 6, they had experienced a relapse of severe disease for several months.
Their disease was characterized by exquisitely tender blistering and ulcerating lesions on their hands and feet that made it difficult to walk or open a cabinet door without severe pain. Their skin was pallid, they were extremely fatigued with a chronic low energy state, and had suffered extensive hair loss. Their sedimentation rate, a marker for systemic inflammation, was highly elevated at 99, whereas a normal level would be 0-30. […] They declined the use of corticosteroids due to severe treatment side effects during a prior relapse.
The subject was randomized to the placebo control group and for 3 months had no improvement in condition. In the second phase of the study, they were placed on a high dose of the methylation formula of 6 grams of laser treated betaine plus cofactors daily. […]
The subject continued on a lower dose of the laser treated methylation formula for 5 more months, reduced to 1-2 grams of the laser treated betaine plus cofactors. […] At the end of fifth month of lower dose treatment, their sedimentation rate had dropped to the very low normal value of 1, the lowest level ever recorded for them.

Data set [2] is described as follows: Pilot test: blood SAMe level and knee pain in a subject with osteoarthritis. The class given is in vivo, human. An excerpt:
As a pilot test, a subject with osteoarthritis had blood SAMe levels measured while taking SAMe and then while taking a betaine formulation. […] On this level of SAMe ingestion for three months, their blood SAMe level was 4.9 (the normal range for this lab is 4.2-8.2). At this time, SAMe was discontinued and they started a methylation formula with one gram of laser treated betaine plus laser treated metabolic cofactors. The betaine and metabolic co-factors were in the same ratios as in the double blind clinical study formula to be described below.
In particular, the dual effect of raising SAMe while reducing homocysteine would be expected to preserve and improve the condition of DNA methylation, as SAMe is the exclusive methyl group donor for DNA methylation.

The conditions of data set [3]: cited from earlier work.
For data set [4] the following is noted: betaine 9 grams daily plus vitamin B12, a liver extract and a creatine precursor; placebo 25%; cited from earlier work.
The conditions of data set [5]: animal studies; cited from earlier work.
Data set [6] in a line: X-ray crystallography of control vs laser treated L-arginine hydrochloride. The data set is classed as physicochemical. The conditions noted are these: crystallized from deionized water by slow evaporation at room temperature. The procedure:
Each sample was dissolved in 0.50 grams of deionized water. The control sample was crystallized by slow evaporation at room temperature over 24 hours. The average room temperature was approximately 26 degrees Centigrade. The average ambient humidity was approximately 33%.
The treated sample was crystallized under the same conditions with the addition of pulsed modulated energy at 532 nm as described for Arg #1 in Example 2 above. The beam was passed through the center of the meniscus of solution in the container.
Crystals from the control and treated samples were selected for further study. Selected crystals all had dimensions of approximately 0.5 mm on a side or less as per the latest standards in the art. The crystal structures were solved using a SMART X-ray diffraction analytical device.

Data set [7] in a line: X-ray crystallography of control vs laser treated betaine hydrochloride. The data set is classed as physicochemical. To be noted: crystals from deionized water. As for the experimental part:
The control and treated betaine hydrochloride samples shown in FIGS. 5A, 5B, 5C, 5D, and 5E were prepared by dissolving 0.6 grams of betaine hydrochloride in 3.0 grams of deionized water and placing the solutions thus prepared in 10×35 mm Petri dishes. Crystallization was done in open containers by slow evaporation at room temperature, a procedure often used in the art of crystallography. Ambient humidity was maintained at or below 30 percent with laboratory dehumidifiers. The treated betaine hydrochloride was irradiated with a 670 nm continuous wave diode laser modulated at 10 MHz with a primary beam power of 2.7 milliwatts that was phase conjugated to 1.35 milliwatts. The 5 mm diameter beam was passed through the middle of fluid meniscus of the treated solution during the entire crystallization process. The control untreated betaine hydrochloride was prepared under the same conditions, except that it was not irradiated with the sparse constructive node generating laser system.
X-ray crystallography was performed using a SMART device made by Siemens. FIGS. 5C and 5D show the intermolecular hydrogen bonding of control versus laser treated betaine hydrochloride, respectively. […]

Counter-ions that a name gives are not always drawn.

Regarding `N=C(N)NCCC[C@H](N)C(=O)O` [Arg #1, L-arginine], in the data set on murine macrophages, the “nitric oxide byproducts produced compared with control untreated Arg #4” value was “statistically significantly less” and the “Mean O.D. ± S.D. (optical density at 540 nm, a measure of nitrite concentration)” value was “.215 ± .007”.
Turning to `N=C(N)NCCC[C@H](N)C(=O)O` [Arg #2, L-arginine], in the data set on murine macrophages, the “nitric oxide byproducts produced compared with control untreated Arg #4” value is recorded as “statistically significantly less” and the “Mean O.D. ± S.D. (optical density at 540 nm, a measure of nitrite concentration)” value was “.219 ± .008”.
As for `N=C(N)NCCC[C@H](N)C(=O)O` [Arg #3, L-arginine], in the data set on murine macrophages, the “nitric oxide byproducts produced compared with control untreated Arg #4” value is “statistically significantly more” and the “Mean O.D. ± S.D. (optical density at 540 nm, a measure of nitrite concentration)” value is recorded as “.232 ± .010”.
For the compound `N=C(N)NCCC[C@H](N)C(=O)O` [Arg #4, L-arginine], the “Mean O.D. ± S.D. (optical density at 540 nm, a measure of nitrite concentration)” value in the data set on murine macrophages is “.224 ± .006”.
For the compound `CCN(CCO)CCCC(C)Nc1ccnc2cc(Cl)ccc12` (stereo not drawn) [Plaquenil], in data set [1], the “relief of lupus symptoms” value is “did little to relieve their symptoms”.
For `C[S+](CC[C@H](N)C(=O)[O-])C[C@H]1O[C@@H](n2cnc3c(N)ncnc32)[C@H](O)[C@@H]1O` (stereo partly drawn) [SAMe, S-adenosyl-methionine], the “blood SAMe level” value in data set [2] (800 mg of SAMe daily for three months, normal range 4.2-8.2) is 4.9. The knee pain result in data set [2] (SAMe 800 mg daily, formula with one gram laser treated betaine for one month) is on record as “moderate degree of relief”. Moreover, the anti-depressant effects entry in data set [3] (1600 mg per day) was “comparable to tricyclic anti-depressant drugs”. Besides, the “time to anti-depressant effects” value in data set [3] (tricyclic medications 4-6 weeks) is on record as “within one week”.
As to `C[N+](C)(C)CC(=O)O` [betaine, N,N,N-trimethylglycine], the “mortality after one year” value in data set [4] is “no mortality”. Also, the “liver SAMe levels” value in data set [5] is listed as “up to fourfold”.
Turning to `Cl.N=C(N)NCCC[C@H](N)C(=O)O` [control L-arginine hydrochloride, L-arginine hydrochloride], the “crystal form / water in the crystal lattice” value in data set [6] is reported as “monohydrated crystal”.
Regarding `Cl.N=C(N)NCCC[C@H](N)C(=O)O` [laser treated L-arginine hydrochloride, L-arginine hydrochloride], the “crystal form / water in the crystal lattice” value in data set [6] was “free of water in the crystal lattice”.
As for `C[N+](C)(C)CC(=O)O` [treated betaine hydrochloride, betaine hydrochloride], in data set [7], the “intermolecular hydrogen bonds per molecule” value is 3.
Still for that read-out and setting: with `C[N+](C)(C)CC(=O)O` [untreated betaine hydrochloride, betaine hydrochloride] the figure was 4.

The record behind these values is US20040230257A1, “Enhanced bioavailability of nutrients, pharmaceutical agents, and other bioactive substances through laser resonant homogenization or modification of molecular shape or crystalline form” (priority 2003, published 2004).
